pIC50: −log10 of the molar value. *1 amine or outer side, *2 acyl side, *3 side chain or, on linkers, in order; H or OH if unused. Where a SMILES comes first, the peptide text is derived from it. Bridges are numbered along the chain shown (N, C = ends). [ ]: non-standard residue; d: D form. 3Aminoazetidine3carboxyl = O=C(C1(N[*:1])CN([*:3])C1)[*:2]; Trp(7-aza) = N[C@@H](Cc1c[nH]c2ncccc12)C(=O)O; mXylylene(5-F) = Fc1cc(C[*:1])cc(C[*:2])c1; X2 = O=C(CCSCc1cccc(CSCCN[*:1])c1)[*:2]; 1Nal = N[C@@H](Cc1cccc2ccccc12)C(=O)O; mXylylene = c1cc(C[*:1])cc(C[*:2])c1; aThr = C[C@H](O)[C@H](N)C(=O)O; αMeOrn = C[C@](N)(CCCN)C(=O)O; Chg = N[C@H](C(=O)O)C1CCCCC1; Tle = CC(C)(C)[C@H](N)C(=O)O; αMeK = C[C@](N)(CCCCN)C(=O)O; αMeV = CC(C)[C@](C)(N)C(=O)O; Nva = CCC[C@H](N)C(=O)O; Aib = CC(C)(N)C(=O)O; Mpa = O=C(O)CCS

Assay [1] concerns the target human PCSK9 / human LDLR EGFa domain interaction (Homo sapiens, UniProt Q8NBP7). The assay can be described thus: TR-FRET assay of inhibition of the PCSK9-LDLR protein-protein interaction. The format is binding. Conditions: 20 nM biotinylated human PCSK9 + 20 nM his-tagged human LDLR EGFa domain, 2 hours room temperature. As to the method:
A time-resolved fluorescence resonance energy (TR-FRET) assay was used to measure inhibition of the PCSK9-LDLR protein-protein interaction. Briefly, 20 nM avitag-biotinylated human PCSK9 was incubated with 20 nM his-tagged human LDLR EGFa domain in the presence of 5 nM LANCE Ulight Streptavidin (Perkin Elmer) and 5 nM europium-Anti-6×His (Perkin Elmer) for 2 hours covered at room temperature in buffer containing 50 mM HEPES, 150 mM NaCl, 5 mM CaCl2, 0.01% BSA and 0.01% Surfactant P20. Compounds were tested in dose-response and concentrations giving half-maximal inhibition calculated using a 4-parameter fit equation.

Assay [2] has as its target T1, PCSK9 (Homo sapiens, UniProt Q8NBP7).
T1 construct: biotin (biotinylated)
The assay can be described thus: PCSK9 Alexa FRET Standard assay (displacement of AlexaFluor647-tagged cyclic peptide Reagent A). It is filed as binding. Conditions: 0.5 nM PCSK9, 20 nM AF cyclic peptide Reagent A. As to the method: A solution containing 1 nM biotinylated PCSK9+2.5 nM Lance Streptavidin Europium (Strep-Eu) was made in 50 mM HEPES pH 7.4, 0.15 M NaCl, 5 mM CaCl2, 0.01% BSA, and 0.01% Surfactant P20. A separate solution containing 40 nM of the AlexaFluor tagged cyclic peptide was made in the same buffer system. An Echo was used to transfer 0.750 ul of compound to an assay plate followed by the addition of 15 ul of PCSK9+Stept-Eu and 15 ul of AF peptide. The final assay volume was 30.750 ul containing 0.5 nM PCSK9, 1.25 nM Strep-Eu, and 20 nM AF cyclic peptide. The reaction was incubated at room temperature for at least two hours prior to fluorescence measurements using an Envision Multilabel Reader. IC50 values were determined by fitting data to a sigmoidal dose-response curve using nonlinear regression. Ki was then calculated from the IC50 and the KD of AF cyclic peptide. Counts (B-counts) of the europium-labeled PCSK9 were followed to observe if compounds were […]. A fall off of the B-counts likely indicated a false positive of inhibition. Data from this procedure was reported as “A=‘numerical value’ (nanomolar)”

T1 sequence (Q8NBP7 153-692): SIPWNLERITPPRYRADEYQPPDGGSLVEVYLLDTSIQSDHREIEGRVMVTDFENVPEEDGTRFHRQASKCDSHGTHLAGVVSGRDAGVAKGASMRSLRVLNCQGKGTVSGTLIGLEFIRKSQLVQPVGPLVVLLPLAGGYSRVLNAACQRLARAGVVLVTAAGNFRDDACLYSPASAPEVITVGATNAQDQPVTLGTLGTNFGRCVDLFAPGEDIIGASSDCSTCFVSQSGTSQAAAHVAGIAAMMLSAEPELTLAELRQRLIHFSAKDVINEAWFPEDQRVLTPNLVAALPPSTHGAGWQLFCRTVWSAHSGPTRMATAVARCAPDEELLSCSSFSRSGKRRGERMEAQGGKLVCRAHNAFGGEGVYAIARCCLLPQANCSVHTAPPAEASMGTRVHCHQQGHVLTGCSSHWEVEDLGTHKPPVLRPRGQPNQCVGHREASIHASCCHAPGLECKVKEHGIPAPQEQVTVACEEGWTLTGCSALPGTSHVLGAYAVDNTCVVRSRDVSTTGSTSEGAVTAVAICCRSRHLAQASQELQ
Sequence of human PCSK9 / human LDLR EGFa domain interaction (Q8NBP7 153-692): as above
Sequence of human PCSK9 / human LDLR EGFa domain interaction (Q8NBP7 31-152 partner limits assumed): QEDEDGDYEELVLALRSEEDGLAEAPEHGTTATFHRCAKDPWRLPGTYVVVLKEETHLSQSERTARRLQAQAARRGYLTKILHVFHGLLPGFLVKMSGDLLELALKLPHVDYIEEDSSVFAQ

On to `CCC[C@H](NC(=O)[C@H](CCCCN)NC(C)=O)C(=O)N[C@H]1CSCc2cccc(c2)CSC[C@@H](C(N)=O)NC(=O)[C@H]([C@@H](C)O)NC(=O)[C@H](C2CCCCC2)NC(=O)[C@H](Cc2c[nH]c3ncccc23)NC(=O)[C@H](Cc2cnc[nH]2)NC(=O)[C@H](CCC(=O)O)NC(=O)[C@H](Cc2c[nH]c3ncccc23)NC(=O)[C@H]([C@@H](C)O)NC(=O)[C@@H]2CCCN2C(=O)[C@H](Cc2ccc(O)cc2)NC(=O)[C@H](C(C)(C)C)NC1=O` [Compound 002] (Ac-K[Nva]C[Tle]YPT[Trp(7-aza)]EH[Trp(7-aza)][Chg]TC-NH2; linker 3-14 via mXylylene), for which the pIC50 in assay [1] and in assay [2] was 7.00 to 9.00 in each case. As to `CC1O[C@@H](C)[C@@H]2NC(=O)[C@@]1(C)NC(=O)[C@H](Cc1ccc(O)cc1)NC(=O)[C@H](C)NC(=O)C(C)(C)NC(=O)[C@H](Cc1c[nH]c3ncccc13)NC(=O)[C@H]([C@@H](C)O)NC(=O)[C@@H]1CCCN1C(=O)[C@H](Cc1ccc(O)cc1)NC(=O)[C@H](C(C)(C)C)NC(=O)CCSCc1cccc(c1)CSC[C@@H](C(N)=O)NC2=O` (stereo partly drawn) [Compound 017], the pIC50 in assay [1] was 6.00 to 7.00; in assay [2], 7.00 to 9.00.

Take `CC(C)[C@]1(C)NC(=O)[C@H](Cc2ccc(O)cc2)NC(=O)[C@H](C)NC(=O)C(C)(C)NC(=O)[C@H](Cc2c[nH]c3ncccc23)NC(=O)[C@H]([C@@H](C)O)NC(=O)[C@@H]2CCCN2C(=O)[C@H](Cc2ccc(O)cc2)NC(=O)[C@H](C(C)(C)C)NC(=O)CCSCc2cccc(c2)CSC[C@@H](C(N)=O)NC(=O)[C@H](CO)NC1=O` [Compound 018] ([Mpa][Tle]YPT[Trp(7-aza)][Aib]AY[αMeV]SC-NH2; linker 1-12 via mXylylene): the pIC50 in assay [1] and in assay [2] was 7.00 to 9.00 each time. With `CC(C)[C@]1(C)NC(=O)[C@H](Cc2ccc(O)cc2)NC(=O)[C@H](C)NC(=O)C(C)(C)NC(=O)[C@H](Cc2c[nH]c3ncccc23)NC(=O)[C@H]([C@@H](C)O)NC(=O)[C@@H]2CCCN2C(=O)[C@H](Cc2ccc(O)cc2)NC(=O)[C@H](C(C)(C)C)NC(=O)CCSCc2cccc(c2)CSC[C@@H](C(N)=O)NC(=O)[C@H](CCCCN)NC1=O` [Compound 019] ([Mpa][Tle]YPT[Trp(7-aza)][Aib]AY[αMeV]KC-NH2; linker 1-12 via mXylylene), the results for the pIC50 in assay [1] and in assay [2] were 4.30 to 4.68 and 4.92 to 6.00, respectively. In the same order, the values of `CC(C)[C@]1(C)NC(=O)[C@H](Cc2ccc(O)cc2)NC(=O)[C@H](CCC(=O)O)NC(=O)C(C)(C)NC(=O)[C@H](Cc2c[nH]c3ncccc23)NC(=O)[C@H]([C@@H](C)O)NC(=O)[C@@H]2CCCN2C(=O)[C@H](Cc2ccc(O)cc2)NC(=O)[C@H](C(C)(C)C)NC(=O)CCSCc2cccc(c2)CSC[C@@H](C(N)=O)NC(=O)[C@H]([C@H](C)O)NC1=O` [Compound 020] ([Mpa][Tle]YPT[Trp(7-aza)][Aib]EY[αMeV][aThr]C-NH2; linker 1-12 via mXylylene) are 4.30 to 4.68 and 4.92 to 6.00.

Take `CC(C)[C@@H]1NC(=O)CCSCc2cccc(c2)CSCCNC(=O)[C@H](C)NC(=O)[C@](C)(C(C)C)NC(=O)[C@H](Cc2ccccc2)NC(=O)[C@H](C)NC(=O)C(C)(C)NC(=O)[C@H](Cc2cccc3ccccc23)NC(=O)[C@H]([C@@H](C)O)NC(=O)[C@@H]2CCCN2C(=O)[C@H](Cc2ccccc2)NC1=O` [Compound 021] (cyclo([1Nal][Aib]AF[αMeV]A[X2]VFPT)): the pIC50 in assay [1] was 6.00 to 7.00; in assay [2], 7.00 to 9.00.

Regarding `CCC[C@@H]1NC(=O)[C@H](Cc2cccc3ccccc23)NC(=O)[C@H]([C@@H](C)O)NC(=O)[C@@H]2CCCN2C(=O)[C@H](Cc2ccccc2)NC(=O)[C@H](C(C)C)NC(=O)CCSCc2cccc(c2)CSCCNC(=O)[C@H](C)NC(=O)[C@](C)(C(C)C)NC(=O)[C@H](Cc2ccccc2)NC(=O)[C@H](C)NC1=O` [Compound 022] (cyclo([1Nal][Nva]AF[αMeV]A[X2]VFPT)), the pIC50 in assay [1] is 6.00 to 7.00; in assay [2], 7.00 to 9.00. Regarding `CC(C)[C@]1(C)NC(=O)[C@H](Cc2ccc(O)cc2)NC(=O)[C@H](C)NC(=O)[C@](C)(CCCCN)NC(=O)[C@H](Cc2c[nH]c3ncccc23)NC(=O)[C@H]([C@@H](C)O)NC(=O)[C@@H]2CCCN2C(=O)[C@H](Cc2ccc(O)cc2)NC(=O)[C@H](C(C)(C)C)NC(=O)CCSCc2cccc(c2)CSC[C@@H](C(N)=O)NC(=O)[C@H]([C@@H](C)O)NC1=O` [Compound 023] ([Mpa][Tle]YPT[Trp(7-aza)][αMeK]AY[αMeV]TC-NH2; linker 1-12 via mXylylene), the pIC50 in assay [1] and in assay [2] was 7.00 to 9.00 throughout. For the molecule `CC(C)[C@]1(C)NC(=O)[C@H](Cc2ccc(O)cc2)NC(=O)[C@H](C)NC(=O)[C@](C)(CCCN)NC(=O)[C@H](Cc2c[nH]c3ncccc23)NC(=O)[C@H]([C@@H](C)O)NC(=O)[C@@H]2CCCN2C(=O)[C@H](Cc2ccc(O)cc2)NC(=O)[C@H](C(C)(C)C)NC(=O)CCSCc2cccc(c2)CSC[C@H](C(N)=O)NC(=O)[C@H]([C@@H](C)O)NC1=O` [Compound 025] ([Mpa][Tle]YPT[Trp(7-aza)][αMeOrn]AY[αMeV]T[dC]-NH2; linker 1-12 via mXylylene), the pIC50 in assay [2] is 7.00 to 9.00. Molecule `CC(=O)N[C@H]1CSCc2cc(F)cc(c2)CSC[C@@H](C(N)=O)NC(=O)[C@H]([C@@H](C)O)NC(=O)[C@](C)(C(C)C)NC(=O)[C@H](Cc2ccc(O)cc2)NC(=O)[C@H](C)NC(=O)C(C)(C)NC(=O)[C@H](Cc2c[nH]c3ncccc23)NC(=O)[C@H]([C@@H](C)O)NC(=O)[C@@H]2CCCN2C(=O)[C@H](Cc2ccc(O)cc2)NC(=O)[C@H](C(C)(C)C)NC1=O` [Compound 026] (Ac-C[Tle]YPT[Trp(7-aza)][Aib]AY[αMeV]TC-NH2; linker 1-12 via mXylylene(5-F)) had a pIC50 in assay [2] of 7.00 to 9.00. The molecule `CC(=O)N[C@H]1CSCc2cccc(c2)CSC[C@H](C(N)=O)NC(=O)[C@H]([C@@H](C)O)NC(=O)[C@](C)(C(C)C)NC(=O)[C@H](Cc2ccc(O)cc2)NC(=O)[C@H](C)NC(=O)C(C)(C)NC(=O)[C@H](Cc2c[nH]c3ncccc23)NC(=O)[C@H]([C@H](C)O)NC(=O)[C@@H]2CCCN2C(=O)[C@H](Cc2ccc(O)cc2)NC(=O)[C@H](C(C)(C)C)NC1=O` [Compound 029] (Ac-C[Tle]YP[aThr][Trp(7-aza)][Aib]AY[αMeV]T[dC]-NH2; linker 1-12 via mXylylene) showed a pIC50 in assay [2] of 6.00 to 7.00.

For `CC(=O)N[C@H]1CSCc2cccc(c2)CSC[C@H](C(N)=O)NC(=O)[C@H]([C@@H](C)O)NC(=O)[C@](C)(C(C)C)NC(=O)[C@H](Cc2ccc(O)cc2)NC(=O)[C@H](C)NC(=O)[C@](C)(CCCN)NC(=O)[C@H](Cc2c[nH]c3ncccc23)NC(=O)[C@H]([C@@H](C)O)NC(=O)[C@@H]2CCCN2C(=O)[C@H](Cc2ccc(O)cc2)NC(=O)[C@H](C(C)(C)C)NC1=O` [Compound 033] (Ac-C[Tle]YPT[Trp(7-aza)][αMeOrn]AY[αMeV]T[dC]-NH2; linker 1-12 via mXylylene), the pIC50 in assay [2] is 7.00 to 9.00. In turn, `CC(=O)N[C@H]1CSCc2cccc(c2)CSC[C@H](C(N)=O)NC(=O)[C@H]([C@@H](C)O)NC(=O)[C@](C)(C(C)C)NC(=O)[C@H](Cc2ccc(O)cc2)NC(=O)[C@H](C)NC(=O)C2(CNC2)NC(=O)[C@H](Cc2c[nH]c3ncccc23)NC(=O)[C@H]([C@@H](C)O)NC(=O)[C@@H]2CCCN2C(=O)[C@H](Cc2ccc(O)cc2)NC(=O)[C@H](C(C)(C)C)NC1=O` [Compound 038] (Ac-C[Tle]YPT[Trp(7-aza)][3Aminoazetidine3carboxyl]AY[αMeV]T[dC]-NH2; linker 1-12 via mXylylene) gave a pIC50 in assay [2] of 7.00 to 9.00.

By pIC50 is commonly meant the negative decadic logarithm of the IC50, by convention in mol/L.

The record behind these values is patent US11505575B2, “Cyclic polypeptides for PCSK9 inhibition” (Merck Sharp & Dohme LLC, priority 2018, dated 2022).
